Consider 23 compounds from US9637451B2, “Indole compound” (ASTELLAS PHARMA INC., priority 2014, dated 2017).

For one data set, the target named is T1, human MT2 receptor (Homo sapiens, UniProt P49286).
T1 construct: expressed in transfected cells
T1 sequence (P49286 1-362): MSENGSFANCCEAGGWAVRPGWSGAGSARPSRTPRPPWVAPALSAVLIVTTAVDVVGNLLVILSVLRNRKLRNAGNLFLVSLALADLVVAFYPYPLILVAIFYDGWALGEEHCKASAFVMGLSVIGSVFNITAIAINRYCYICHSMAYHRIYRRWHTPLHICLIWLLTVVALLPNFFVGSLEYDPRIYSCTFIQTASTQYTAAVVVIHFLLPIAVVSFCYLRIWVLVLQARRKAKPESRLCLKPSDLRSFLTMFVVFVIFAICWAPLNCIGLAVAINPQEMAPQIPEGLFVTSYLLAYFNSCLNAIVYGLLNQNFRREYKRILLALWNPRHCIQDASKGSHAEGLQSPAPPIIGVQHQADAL
Briefly: Activation of human MT2 receptor in receptor-expressing cells, intracellular Ca2+ by FLIPR. The following applies: for EC50: HEK293 cells stably expressing human MT2 and Gq/i chimeric G protein, Ca2+ FLIPR; for Emax: maximum reaction by ramelteon taken as 100%. In kind it is cell-based.

Data set [1] in a line: CSF-to-plasma unbound concentration ratio in rat after intravenous administration. The format is in vivo. As to conditions: CSF and plasma (unbound), iv, 15 minutes after intravenous administration, fp by ultracentrifugation method. As to the method: A test compound (100 μg/mL, 50% acetonitrile solution) at 1% (v/v) with respect to the amount of the plasma was added to rat plasma, and dispensed to a sample for a supernatant and a sample for the plasma. The sample for a supernatant was ultracentrifuged at 436,000×g and 37° C. for 140 minutes, and the sample for the plasma was incubated at 37° C. for 140 minutes.
After 140 minutes, the sample for a supernatant after the ultracentrifugation and the sample for the plasma were taken, and mixed with the blank plasma or the blank supernatant, respectively. Acetonitrile including an internal standard material was added to each of the samples with the removal of protein, and after the centrifugation at 2150×g and 4° C. for 10 minutes the supernatant was injected into LC-MS/MS.
The unbound fraction in the plasma was calculated by the following equation.
To the plasma of a rat was added a test compound (0.2 mM, 50% acetonitrile solution) in an amount corresponding to 1% (v/v) of the plasma amount, and 200 μL of obtained plasma sample was filled into a plasma chamber of a RED device insert. A buffer chamber was filled with 350 μL of PBS, followed by performing equilibrium dialysis by stirring in a CO2 incubator at 37° C. for 16 hours. The sample after the completion of the equilibrium dialysis was recovered and the volume of the plasma sample was measured. To the plasma sample after the completion of the equilibrium dialysis were added PBS, a 20 mM ammonium formate buffer, and acetonitrile including an internal standard material. Similarly, to the PBS sample after the completion of the equilibrium dialysis was added a blank plasma, a 20 mM ammonium formate buffer, and acetonitrile including an internal standard material. This sample was left to stand at 4° C. for 30 minutes and then centrifuged 1500×g for 10 minutes, and the supernatant was measured by LC-MS/MS. The unbound fraction in the plasma was calculated by the following equation. fp=Cf/{(Cp−Cf)(V/V0)+Cf}
At 15 minutes after intravenously administration of the test compound to the rats, the plasma and CSF were collected. A 50% acetonitrile solution and an acetonitrile including internal standard material were added to the collected plasma or CSF. After centrifuging this sample at 4° C. and 2150×g for 10 minutes, the supernatant was measured by LC-MS/MS, and the total concentration of the test compound in the plasma (Cplasma,t) and the concentration of the test compound in CSF (CCSF) were obtained. The unbound concentration in the plasma (Cplasma,u) of the test compound and the CSF-to-plasma unbound concentration ratio (Kp,uu,CSF) of the test compound was calculated by the following equation.
(§1) The Kp,uu,CSF values and the Kp,brain values of ramelteon and some Example compounds of the present invention are shown in Table 4. Ex represents Example No. of the test compound. Unless otherwise specified, the Kp,uu,CSF was calculated using the fp values determined by an ultracentrifugation method. Further, N.T. represents Not Tested.
(Ramelteon represents the values of Kp,uu,CSF after 10 minutes after the intravenous administration. Further, the Kp,uu,CSF of Examples 37 and 38 was calculated using the fp values determined by an equilibrium dialysis method. In addition, N.D. denotes the concentration of the test compound in CSF that is no higher than the detection limit.)

In the next data set the target is T2, human MT1 receptor (Homo sapiens, UniProt P48039).
T2 construct: expressed in transfected cells
T2 sequence (P48039 whole entry): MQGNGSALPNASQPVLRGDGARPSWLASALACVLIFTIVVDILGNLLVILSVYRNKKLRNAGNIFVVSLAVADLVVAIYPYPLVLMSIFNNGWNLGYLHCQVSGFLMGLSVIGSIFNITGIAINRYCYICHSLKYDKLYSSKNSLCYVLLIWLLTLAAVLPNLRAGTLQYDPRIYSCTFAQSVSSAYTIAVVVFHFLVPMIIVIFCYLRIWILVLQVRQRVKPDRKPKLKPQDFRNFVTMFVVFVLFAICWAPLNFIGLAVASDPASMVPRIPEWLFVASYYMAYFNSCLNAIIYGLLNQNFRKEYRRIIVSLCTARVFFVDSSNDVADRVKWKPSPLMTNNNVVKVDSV
The data set can be described thus: Activation of human MT1 receptor in receptor-expressing cells, intracellular Ca2+ by FLIPR. In kind it is cell-based. As to conditions: for EC50: HEK293EBNA1 cells stably expressing human MT1 and Gq/i chimeric G protein, Ca2+ FLIPR; for Emax: maximum reaction by ramelteon taken as 100%.

Data set [2] can be described thus: Brain-to-plasma concentration ratio in rat after intravenous administration. The format is in vivo. The following applies: brain and plasma, 15 minutes after intravenous administration. As to the method:
At 15 minutes after intravenously administration of the test compound to the rats, the plasma and brain were collected. A 50% acetonitrile solution and an acetonitrile including internal standard material were added to the collected plasma. The collected brain was added to a 2-fold volume of PBS and homogenized. A 50% acetonitrile solution and an acetonitrile including internal standard material were added to the brain homogenate. The sample was centrifuged at 4° C. and 2150×g for 10 minutes, the supernatant was measured by LC-MS/MS, and the total concentration of the test compound in the brain (Cbrain) and the total concentration of the test compound in the plasma (Cplasma,t) were obtained. The brain-to-plasma concentrations ratio (Kp,brain) was calculated by the following equation.
as §1

On human MT2 receptor, `COc1ccc(OCCOc2ccc3[nH]cc(CCNC(C)=O)c3c2)cn1` [Example 5, N-[2-(5-{2-[(6-methoxypyridin-3-yl)oxy]ethoxy}-1H-indol-3-yl)ethyl]acetamide] came in with an EC50 of 150 nM and an Emax of 48%. The Kp uu at 0.25 h in data set [1] was 0.1. Besides, at human MT1 receptor, the EC50 turned out to be 13 nM and the Emax worked out at 89%. Also, the Kp at 0.25 h in data set [2] turned out to be 0.089.
In the case of `CNC(=O)NCCc1c(C)[nH]c2ccc(OCCOc3ccc(OC)nc3)cc12` [Example 31, 1-[2-(5-{2-[(6-methoxypyridin-3-yl)oxy]ethoxy}-2-methyl-1H-indol-3-yl)ethyl]-3-methylurea], the EC50 stood at 28 nM on human MT2 receptor and 1.4 nM on human MT1 receptor. The values for the Emax on human MT2 receptor and at human MT1 receptor were 88% and 104%, respectively. Moreover, the Kp uu at 0.25 h in data set [1] worked out at 0.01.
Take `CNC(=O)NCCc1c(C)[nH]c2ccc(OCCOc3ccnc(C)c3)cc12` [Example 9, 1-methyl-3-[2-(2-methyl-5-{2-[(2-methylpyridin-4-yl)oxy]ethoxy}-1H-indol-3-yl)ethyl]urea]: the EC50 was 32 nM at human MT2 receptor and 9.9 nM on human MT1 receptor. Further, the Emax at human MT2 receptor is 116%; on human MT1 receptor it was 84%. In data set [2], the Kp at 0.25 h is 0.01.
As for `COC(=O)NCCOc1cc2c(CCNC(C)=O)c(C)[nH]c2cc1F` [Example 19], at human MT2 receptor, the EC50 turned out to be 17 nM and the Emax is 91%. On human MT1 receptor, this compound had an EC50 of 5.7 nM and an Emax of 94%.
For the compound `COc1ccc(OCCOc2cc3c(CCNC(C)=O)c[nH]c3cc2F)cn1` [Example 28], the values for the EC50 on human MT2 receptor and on human MT1 receptor were 35 nM and 6.8 nM, respectively. Also, the Emax on human MT2 receptor amounted to 62%; at human MT1 receptor it was 119%.
On to `CCC(=O)NCCc1c[nH]c2cc(F)c(OCCOc3ccn(C)n3)cc12` [Example 43], for which, on human MT2 receptor, the 50% effective concentration (EC50) amounted to 7.1 nM and the Emax was 104%. In addition, on human MT1 receptor, a half-maximal effect (EC50) was put at 5.3 nM and the Emax stood at 110%.
On human MT2 receptor, `CNC(=O)NCCc1c[nH]c2cc(F)c(OCCc3csc(C)n3)cc12` [Example 26] had an EC50 of 9.8 nM and an Emax of 106%. At human MT1 receptor, this compound gave an EC50 of 8.8 nM and an Emax of 97%.
Taken in the same sequence, the figures for `CCc1ccn(CCOc2cc3c(CCNC(C)=O)c[nH]c3cc2F)n1` [Example 27] were 10 nM, 82%, 8.7 nM and 83%.
The matching figures for `CCC(=O)NCCc1c[nH]c2cc(F)c(OCCOc3ccc(OC)nc3)cc12` [Example 46]: 6.3 nM, 76%, 3.4 nM and 78%.
For `CC(=O)NCCc1c[nH]c2ccc(OCCOc3cccc(C)n3)cc12` [Example 11, N-[2-(5-{2-[(6-methylpyridin-2-yl)oxy]ethoxy}-1H-indol-3-yl)ethyl]acetamide], the EC50 on human MT2 receptor was determined as 2.4 nM; at human MT1 receptor, 0.71 nM. Moreover, the Emax on human MT2 receptor was found to be 99%; on human MT1 receptor, 107%. Besides, the Kp uu at 0.25 h in data set [1] is 0.05.
In the case of `CC(=O)NCCc1c[nH]c2ccc(OCCOc3ccnc(C)c3)cc12` [Example 59], at human MT2 receptor, the EC50 was determined as 9.6 nM and the Emax was 99%. In addition, at human MT1 receptor, a half-maximal response (EC50) required 6.6 nM and the Emax worked out at 120%.
Taken in the same sequence, the figures for `Cn1ccc(OCCOc2ccc3[nH]cc(CCNC(=O)C(F)F)c3c2)n1` [Example 42] were 12 nM, 103%, 7.9 nM and 97%.
Turning to `CNC(=O)NCCc1c(C)[nH]c2ccc(OCCOc3cnc(OC)c(F)c3)cc12` [Example 48], the half-maximal effective concentration (EC50) at human MT2 receptor stood at 56 nM; on human MT1 receptor, 8.4 nM. For the same compound, the results for the Emax at human MT2 receptor and at human MT1 receptor were 106% and 92%, respectively.
Taken in the same sequence, the figures for `CC(=O)NCCc1c[nH]c2ccc(OCCOc3cncc(Br)c3)cc12` [Example 49] were 11 nM, 5.6 nM, 119% and 102%.
`CC(=O)NCCc1c[nH]c2ccc(OCCOc3ccn(C)n3)cc12` [Example 2, N-[2-(5-{2-[(1-methyl-1H-pyrazol-3-yl)oxy]ethoxy}-1H-indol-3-yl)ethyl]acetamide]: on human MT2 receptor, the EC50 came to 17 nM and the Emax worked out at 125%. Also, at human MT1 receptor, the EC50 stood at 7 nM and the Emax was found to be 125%.
Consider `CC(=O)NCCc1c[nH]c2ccc(OCCOc3ccnc(Cl)c3)cc12` [Example 51], for which, at human MT2 receptor, a half-maximal effect (EC50) was put at 4.7 nM and the Emax came out at 108%. Further, at human MT1 receptor, it took 5.3 nM to reach a half-maximal effect (EC50) and the Emax came to 95%.
On to `CNC(=O)NCCc1c[nH]c2ccc(OCCOc3cncc(Br)c3)cc12` [Example 50], for which, at human MT2 receptor, the EC50 was 6.4 nM and the maximum response (Emax) worked out at 111%. At human MT1 receptor, a half-maximal effect (EC50) was put at 8.5 nM and the Emax stood at 89%.
At human MT2 receptor, `CC(=O)NCCc1c(C)[nH]c2cc(F)c(OCCOc3ccn(C)n3)cc12` [Example 13, N-[2-(6-fluoro-2-methyl-5-{2-[(1-methyl-1H-pyrazol-3-yl)oxy]ethoxy}-1H-indol-3-yl)ethyl]acetamide] yielded an EC50 of 7 nM and an Emax of 110%. Also, in data set [1], the Kp uu at 0.25 h is 0.03. In addition, on human MT1 receptor, the concentration for a half-maximal effect (EC50) was found to be 4.3 nM and the Emax is 105%.
For `CC(=O)NCC(C)(C)c1c[nH]c2cc(F)c(OCCOc3ccn(C)n3)cc12` [Example 35], on human MT2 receptor, the EC50 worked out at 8.3 nM and the Emax amounted to 114%. On human MT1 receptor, this compound returned an EC50 of 3.7 nM and an Emax of 94%.
`COC(=O)NCCOc1ccc2[nH]c(C)c(CCNC(C)=O)c2c1` [Example 17]: on human MT2 receptor, the response was half-maximal at 33 nM (EC50) and the Emax was 91%. On human MT1 receptor, this compound came in with an EC50 of 5.9 nM and an Emax of 84%.
Turning to `CC(=O)NCCc1c[nH]c2cc(F)c(OCCc3csc(C)n3)cc12` [Example 25], at human MT2 receptor, the EC50 came to 2.9 nM and the Emax worked out at 96%. For the same compound, at human MT1 receptor, a half-maximal effect (EC50) was put at 1.5 nM and the maximal effect (Emax) amounted to 105%.
Regarding `COc1ccc(OCCOc2cc3c(CCNC(C)=O)c(C)[nH]c3cc2F)cn1` [Example 16], the EC50 at human MT2 receptor came to 100 nM; on human MT1 receptor, 10 nM. Also, the Emax on human MT2 receptor was 82%; at human MT1 receptor it was 100%.
On human MT2 receptor, `CCC(=O)NCCc1c(C)[nH]c2ccc(OCCn3ccc(C)n3)cc12` [Example 15, N-(2-{2-methyl-5-[2-(3-methyl-1H-pyrazol-1-yl)ethoxy]-1H-indol-3-yl}ethyl)propanamide] gave an EC50 of 12 nM and an Emax of 110%. Further, the Kp uu at 0.25 h in data set [1] came out at 0.04. At human MT1 receptor, this compound showed an EC50 of 8.4 nM and an Emax of 106%.

For orientation: EC50 means the concentration that produces a half-maximal response. A low value points to a more potent agent. What is called Emax is the maximal effect, on the per cent scale that the assay sets. One may read the Kp as tissue or fluid exposure divided by exposure in the circulation.
